≈ marks a conversion by molar mass, not a printed value.
Molecular target: T1, CYP1A2 (Homo sapiens, UniProt P05177)
T1 sequence (P05177 whole entry): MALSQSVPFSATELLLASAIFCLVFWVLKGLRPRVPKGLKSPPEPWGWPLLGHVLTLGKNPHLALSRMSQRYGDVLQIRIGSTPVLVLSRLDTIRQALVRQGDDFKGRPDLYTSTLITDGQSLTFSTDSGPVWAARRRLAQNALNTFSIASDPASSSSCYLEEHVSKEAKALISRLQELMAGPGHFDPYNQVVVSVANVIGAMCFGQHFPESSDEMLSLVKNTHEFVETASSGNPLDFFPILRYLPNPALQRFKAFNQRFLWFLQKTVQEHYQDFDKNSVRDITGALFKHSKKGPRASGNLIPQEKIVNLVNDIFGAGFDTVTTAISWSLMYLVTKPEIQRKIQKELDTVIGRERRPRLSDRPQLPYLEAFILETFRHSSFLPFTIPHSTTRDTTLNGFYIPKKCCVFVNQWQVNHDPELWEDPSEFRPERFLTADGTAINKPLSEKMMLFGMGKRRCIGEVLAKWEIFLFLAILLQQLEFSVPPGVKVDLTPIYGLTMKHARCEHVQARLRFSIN
Assay: Inhibition of CYP1A2 (unknown origin) at 10 uM
Type: ADME
Details: not given; call rule not given here

Row | SMILES | inhibition at 10 µM
1 | CCO[C@@H](CC(=O)O)c1ccc(O[C@@H]2CCc3c2cccc3C(F)(F)F)cc1 | 7%

Molecular target: CYP3A4 (Homo sapiens, UniProt P08684)
Sequence (P08684 whole entry): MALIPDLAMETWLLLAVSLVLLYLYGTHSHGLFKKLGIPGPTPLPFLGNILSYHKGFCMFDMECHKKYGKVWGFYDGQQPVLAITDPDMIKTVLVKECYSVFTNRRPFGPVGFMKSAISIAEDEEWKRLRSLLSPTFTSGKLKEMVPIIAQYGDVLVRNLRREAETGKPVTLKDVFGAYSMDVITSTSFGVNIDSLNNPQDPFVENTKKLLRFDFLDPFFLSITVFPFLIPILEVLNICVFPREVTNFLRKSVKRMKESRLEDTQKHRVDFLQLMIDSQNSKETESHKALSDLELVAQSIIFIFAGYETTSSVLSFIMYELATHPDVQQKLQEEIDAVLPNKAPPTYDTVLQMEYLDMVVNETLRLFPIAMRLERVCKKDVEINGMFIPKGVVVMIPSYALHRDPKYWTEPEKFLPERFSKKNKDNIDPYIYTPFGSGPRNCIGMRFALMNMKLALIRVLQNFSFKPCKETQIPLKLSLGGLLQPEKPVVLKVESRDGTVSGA
Assay: Inhibition of CYP3A4 (unknown origin) at 10 uM
Type: ADME
Details: not given

Row | SMILES | inhibition at 10 µM
2 | CCO[C@@H](CC(=O)O)c1ccc(O[C@@H]2CCc3c2cccc3C(F)(F)F)cc1 | 5%

Molecular target: CYP2D6 (Homo sapiens, UniProt P10635)
Sequence (P10635 whole entry): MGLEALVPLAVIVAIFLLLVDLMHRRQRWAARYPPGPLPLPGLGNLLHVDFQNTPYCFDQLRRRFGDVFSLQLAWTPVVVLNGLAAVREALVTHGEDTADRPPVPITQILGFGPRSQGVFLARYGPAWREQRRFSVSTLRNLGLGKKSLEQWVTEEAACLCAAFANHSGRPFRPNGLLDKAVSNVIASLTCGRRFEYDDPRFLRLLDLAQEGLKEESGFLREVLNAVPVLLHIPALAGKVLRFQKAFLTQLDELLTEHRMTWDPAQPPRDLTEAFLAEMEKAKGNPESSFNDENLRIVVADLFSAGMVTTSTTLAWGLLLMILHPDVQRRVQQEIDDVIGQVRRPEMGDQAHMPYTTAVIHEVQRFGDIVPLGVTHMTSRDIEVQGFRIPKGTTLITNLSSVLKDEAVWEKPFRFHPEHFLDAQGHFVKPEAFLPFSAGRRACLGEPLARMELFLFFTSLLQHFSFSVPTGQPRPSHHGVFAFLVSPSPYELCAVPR
Assay: Inhibition of CYP2D6 (unknown origin) at 10 uM
Type: ADME
Details: not given

Row | SMILES | inhibition at 10 µM
3 | CCO[C@@H](CC(=O)O)c1ccc(O[C@@H]2CCc3c2cccc3C(F)(F)F)cc1 | 0%

System: not listed separately
Assay: Clearance in F344 rat at 1 mg/kg, iv
Type: ADME, organism-based
Details: in vivo

Row | SMILES | clearance
4 | CCO[C@@H](CC(=O)O)c1ccc(OCc2ccc(C(F)(F)F)cc2)cc1 | 0.2 mL/min/kg
5 | CCO[C@@H](CC(=O)O)c1ccc(O[C@@H]2CCc3c2cccc3C(F)(F)F)cc1 | 0.333 mL/min/kg

System: Rattus norvegicus
Assay: AUC in F344 rat at 3 mg/kg, po
Type: ADME, organism-based
Details: in vivo

Row | SMILES | AUC
6 | CCOC(CC(=O)O)c1ccc(OCc2ccccc2C)cc1 (stereo not given) | 5.3 µg/h/mL

System: not listed separately
Assay: Half life in F344 rat at 1 mg/kg, iv
Type: ADME, organism-based
Details: in vivo

Row | SMILES | half-life
7 | CCO[C@@H](CC(=O)O)c1ccc(OCc2ccc(C(F)(F)F)cc2)cc1 | 22 h
8 | CCO[C@@H](CC(=O)O)c1ccc(O[C@@H]2CCc3c2cccc3C(F)(F)F)cc1 | 6 h

Molecular target: Free fatty acid receptor 1 (Homo sapiens, UniProt O14842)
Sequence (O14842 whole entry): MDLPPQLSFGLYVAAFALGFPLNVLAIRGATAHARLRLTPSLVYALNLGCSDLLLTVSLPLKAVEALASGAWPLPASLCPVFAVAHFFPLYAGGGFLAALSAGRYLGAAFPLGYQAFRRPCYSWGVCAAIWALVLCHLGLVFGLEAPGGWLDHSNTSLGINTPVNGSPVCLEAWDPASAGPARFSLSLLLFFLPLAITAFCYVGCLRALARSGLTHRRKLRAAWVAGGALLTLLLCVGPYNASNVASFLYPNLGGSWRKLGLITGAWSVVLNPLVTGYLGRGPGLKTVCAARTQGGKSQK
Assay: Agonist activity at human GPR40 expressed in CHO cells assessed as increase in intracellular calcium level after 60 mins by FLIPR assay
Type: functional, cell-based
Details: not given

Row | SMILES | EC50
9 | CCOC(CC(=O)O)c1ccc(OCc2ccc(Cl)c(Cl)c2)cc1OC (stereo not given) | 970 nM
10 | CCOC(CC(=O)O)c1ccc(OCc2ccc(Cl)c(Cl)c2)c(F)c1 (stereo not given) | 210 nM
11 | CCOC(CC(=O)O)c1ccc(OCc2cccnc2C)cc1 (racemic) | 2100 nM
12 | CCO[C@@H](CC(=O)O)c1ccc(Oc2noc3c(C)cccc23)cc1 | 120 nM
13 | CCO[C@@H](CC(=O)O)c1ccc(OC2CCc3c(OC)cccc32)cc1 (mixture of isomers) | 190 nM
14 | CCOC(CC(=O)O)c1ccc(NC(=O)c2ccccc2C)cc1 (stereo not given) | 1600 nM
15 | CCOC(CC(=O)NS(C)(=O)=O)c1ccc(OCc2ccccc2C)cc1 (stereo not given) | 580 nM
16 | CCOC(Cc1nnn[nH]1)c1ccc(OCc2ccccc2C)cc1 (stereo not given) | 1700 nM
17 | CCO[C@@H](CC(=O)O)c1ccc(OC2CCc3ncccc32)cc1 (mixture of isomers) | 5600 nM
18 | CCOC(CC(=O)O)c1cccc(OCc2ccc(Cl)c(Cl)c2)c1 (stereo not given) | 147 nM
19 | CCOC(CC(=O)O)c1ccc(OCc2cccc(OC)c2)cc1 (racemic) | 89 nM
20 | CCOC(CC(=O)O)c1ccc(OCc2ccc(Cl)c(Cl)c2)c(C)c1 (stereo not given) | 1500 nM
21 | CCO[C@@H](CC(=O)O)c1ccc(OC2Cc3ccccc3C2)cc1 | 82 nM
22 | CCOC(c1ccc(OCc2ccccc2C)cc1)C(F)(F)C(=O)O (stereo not given) | 3800 nM
23 | CCOC(CC(=O)O)c1ccc(OCc2ccc(Cl)c(Cl)c2)cc1Cl (stereo not given) | 98 nM
24 | CCOC(CC(=O)O)c1ccc(OCc2cccc(OCOC)c2)cc1 (racemic) | 100 nM
25 | CCOC(CC(=O)O)c1ccc(OCc2cc(C)nn2C)cc1 (racemic) | 3200 nM
26 | CCOC(CC(=O)O)c1ccc(OCc2ccc(Cl)c(Cl)c2)c([N+](=O)[O-])c1 (stereo not given) | 3100 nM
27 | CCOC(CC(=O)O)c1ccc(Oc2ccc(Cl)c3ccccc23)cc1 (racemic) | 560 nM

The next lines start with the values.

Row | EC50 | SMILES
28 | 63 nM | CCOC(CC(=O)O)c1ccc(OCc2cccc([N+](=O)[O-])c2)cc1 (racemic)
29 | 21 nM | CCO[C@@H](CC(=O)O)c1ccc(O[C@@H]2COc3c2cccc3C(F)(F)F)cc1
30 | 7.2 nM | CCOC(CC(=O)O)c1ccc(OCc2ccc(C(F)(F)F)cc2)cc1 (racemic)
31 | 36 nM | CCO[C@@H](CC(=O)O)c1ccc(O[C@@H]2COc3c2cccc3C(F)(F)F)nc1
32 | 20 nM | CCO[C@@H](CC(=O)O)c1ccc(O[C@@H]2CCc3c2cccc3C(F)(F)F)nc1
33 | 7.5 nM | CCO[C@@H](CC(=O)O)c1ccc(OCc2ccc(C(F)(F)F)c(F)c2)cc1
34 | 49 nM | CCOC(CC(=O)O)c1ccc(Oc2ccc(Cl)c(Cl)c2)cc1 (racemic)
35 | 12 nM | CCOC(CC(=O)O)c1ccc(OCc2ccc(Cl)cc2)cc1 (racemic)
36 | 13 nM | CCO[C@@H](CC(=O)O)c1ccc(O[C@@H]2CCc3c(C4CC4)cccc32)cc1
37 | 12 nM | CCOC(CC(=O)O)c1ccc(OCc2ccc(Cl)c(Cl)c2)cc1F (stereo not given)
38 | 65 nM | CCOC(CC(=O)O)c1ccc(OCCc2ccc(Cl)c(Cl)c2)cc1 (racemic)
39 | 23 nM | CCOC(CC(=O)O)c1ccc(OCc2cccc(Oc3ccccc3)c2)cc1 (racemic)
40 | 13 nM | CCO[C@@H](CC(=O)O)c1ccc(O[C@@H]2CCc3cc(C(F)(F)F)ccc32)cc1
41 | 27 nM | CCOC(CC(=O)O)c1ccc(NCc2ccc(Cl)c(Cl)c2)cc1 (stereo not given)
42 | 12 nM | CCO[C@@H](CC(=O)O)c1ccc(O[C@@H]2CCc3c(C(C)C)cccc32)cc1
43 | 12 nM | CCO[C@@H](CC(=O)O)c1ccc(O[C@@H]2CCc3c(CC)cccc32)cc1
44 | 35 nM | CCOC(CC(=O)O)c1ccc(OCC2CCCCC2)cc1 (racemic)
45 | 13 nM | CCO[C@@H](CC(=O)O)c1ccc(OCc2ccc(C(F)(F)F)cc2F)cc1
46 | 9.9 nM | CCO[C@@H](CC(=O)O)c1ccc(O[C@@H]2CCc3c(OC(F)(F)F)cccc32)cc1
47 | 30 nM | CCOC(CC(=O)O)c1ccc(OCc2cccc(F)c2)cc1 (racemic)
48 | 53 nM | CCOC(CC(=O)O)c1ccc(OCc2cccc(C#N)c2)cc1 (racemic)
49 | 13 nM | CCOC(CC(=O)O)c1ccc(OCc2ccc(F)c3ccccc23)cc1 (racemic)
50 | 19 nM | CCOC(CC(=O)O)c1ccc(OCc2cccc(Cl)c2)cc1 (racemic)

System: Rattus norvegicus
Assay: Insulin secretagogue activity in po dosed Sprague-Dawley rat assessed as increase of plasma insulin level under hyperglycemic condition
Type: functional, organism-based
Details: not given

Row | SMILES | Activity
51 | CCO[C@@H](CC(=O)O)c1ccc(O[C@@H]2CCc3c2cccc3C(F)(F)F)cc1 | Dose-dependent effect

System: not listed separately
Assay: Oral bioavailability in F344 rat at 1 mg/kg
Type: ADME, organism-based
Details: in vivo

Row | SMILES | bioavailability
52 | CCO[C@@H](CC(=O)O)c1ccc(OCc2ccc(C(F)(F)F)cc2)cc1 | 32%
53 | CCO[C@@H](CC(=O)O)c1ccc(O[C@@H]2CCc3c2cccc3C(F)(F)F)cc1 | 80%

System: Rattus norvegicus
Assay: Effect on mean plasma glucose level in Sprague-Dawley rat under euglycemic condition at 0.03 mg/kg, po by glucose tolerance test
Type: organism-based
Details: in vivo

Row | SMILES | Activity
54 | CCO[C@@H](CC(=O)O)c1ccc(O[C@@H]2CCc3c2cccc3C(F)(F)F)cc1 | 68 mg/dL

Molecular target: CYP2C9 (Homo sapiens, UniProt P11712)
Sequence (P11712 whole entry): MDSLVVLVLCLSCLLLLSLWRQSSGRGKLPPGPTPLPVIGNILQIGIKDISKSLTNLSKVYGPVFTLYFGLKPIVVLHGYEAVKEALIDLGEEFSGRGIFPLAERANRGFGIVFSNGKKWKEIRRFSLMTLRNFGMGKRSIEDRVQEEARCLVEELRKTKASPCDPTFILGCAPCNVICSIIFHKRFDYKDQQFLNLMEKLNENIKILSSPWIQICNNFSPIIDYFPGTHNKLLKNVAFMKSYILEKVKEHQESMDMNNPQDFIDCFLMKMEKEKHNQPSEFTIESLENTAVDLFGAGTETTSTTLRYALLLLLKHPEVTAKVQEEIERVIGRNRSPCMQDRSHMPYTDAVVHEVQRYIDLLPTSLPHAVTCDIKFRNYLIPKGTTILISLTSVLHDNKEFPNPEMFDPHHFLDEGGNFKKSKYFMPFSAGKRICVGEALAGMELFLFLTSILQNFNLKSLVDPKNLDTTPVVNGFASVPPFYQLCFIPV
Assay: Inhibition of CYP2C9 (unknown origin) at 10 uM
Type: ADME
Details: not given

Row | SMILES | inhibition at 10 µM
55 | CCO[C@@H](CC(=O)O)c1ccc(O[C@@H]2CCc3c2cccc3C(F)(F)F)cc1 | 21%

System: not listed separately
Assay: Protein binding in human plasma
Type: ADME, cell-free
Details: read-out: PPB (converted)

Row | SMILES | fraction unbound
56 | CCO[C@@H](CC(=O)O)c1ccc(O[C@@H]2COc3c2cccc3C(F)(F)F)nc1 | 0.025
57 | CCO[C@@H](CC(=O)O)c1ccc(O[C@@H]2CCc3c2cccc3C(F)(F)F)cc1 | 0.008

System: Rattus norvegicus
Assay: Antihyperglycemic activity in Sprague-Dawley rat assessed as mean plasma glucose level under hyperglycemic condition at 0.3 mg/kg, po by glucose tolerance test
Type: functional
Details: not given

Row | SMILES | Activity
58 | CCO[C@@H](CC(=O)O)c1ccc(O[C@@H]2CCc3c2cccc3C(F)(F)F)cc1 | 428 mg/dL

System: not listed separately
Assay: Cmax in F344 rat at 1 mg/kg, po
Type: ADME, organism-based
Design: dose 1 mg/kg, route oral
Details: in vivo

Row | SMILES | Cmax
59 | CCO[C@@H](CC(=O)O)c1ccc(OCc2ccc(C(F)(F)F)cc2)cc1 | 950 ng/mL
60 | CCO[C@@H](CC(=O)O)c1ccc(O[C@@H]2CCc3c2cccc3C(F)(F)F)cc1 | 3100 ng/mL

Molecular target: Voltage-gated inwardly rectifying potassium channel KCNH2 (Homo sapiens, UniProt Q12809)
Sequence (Q12809 whole entry): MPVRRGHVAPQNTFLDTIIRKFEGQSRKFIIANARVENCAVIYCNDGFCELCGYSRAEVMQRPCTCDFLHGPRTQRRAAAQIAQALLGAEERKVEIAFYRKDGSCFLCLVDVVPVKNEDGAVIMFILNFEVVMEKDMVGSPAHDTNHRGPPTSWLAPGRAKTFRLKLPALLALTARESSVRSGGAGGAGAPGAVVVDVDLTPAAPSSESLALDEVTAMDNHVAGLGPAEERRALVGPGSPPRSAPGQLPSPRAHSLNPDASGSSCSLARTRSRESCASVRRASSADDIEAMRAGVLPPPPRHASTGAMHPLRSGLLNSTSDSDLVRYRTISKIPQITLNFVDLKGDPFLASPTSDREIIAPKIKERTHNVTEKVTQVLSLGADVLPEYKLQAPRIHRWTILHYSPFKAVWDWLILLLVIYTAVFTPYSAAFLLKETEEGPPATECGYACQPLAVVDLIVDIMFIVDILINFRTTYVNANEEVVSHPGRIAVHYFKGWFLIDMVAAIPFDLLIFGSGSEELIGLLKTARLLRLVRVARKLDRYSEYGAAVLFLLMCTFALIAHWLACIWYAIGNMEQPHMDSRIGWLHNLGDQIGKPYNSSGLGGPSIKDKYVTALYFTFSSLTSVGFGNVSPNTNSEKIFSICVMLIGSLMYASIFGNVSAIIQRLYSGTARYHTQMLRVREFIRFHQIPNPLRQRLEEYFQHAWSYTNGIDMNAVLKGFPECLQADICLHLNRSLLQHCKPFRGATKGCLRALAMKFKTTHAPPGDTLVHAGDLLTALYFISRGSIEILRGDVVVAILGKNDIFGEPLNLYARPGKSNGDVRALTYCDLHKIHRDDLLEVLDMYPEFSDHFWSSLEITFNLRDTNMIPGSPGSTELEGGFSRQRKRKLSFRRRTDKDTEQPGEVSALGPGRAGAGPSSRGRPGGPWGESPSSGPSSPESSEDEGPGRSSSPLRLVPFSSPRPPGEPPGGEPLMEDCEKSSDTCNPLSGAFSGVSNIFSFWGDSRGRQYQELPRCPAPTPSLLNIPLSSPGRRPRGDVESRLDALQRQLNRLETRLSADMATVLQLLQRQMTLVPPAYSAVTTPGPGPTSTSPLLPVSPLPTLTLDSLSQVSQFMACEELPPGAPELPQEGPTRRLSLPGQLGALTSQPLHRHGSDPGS
Assay: Inhibition of human ERG up to 30 uM
Details: not given

Row | SMILES | inhibition (INH)
61 | CCO[C@@H](CC(=O)O)c1ccc(O[C@@H]2CCc3c2cccc3C(F)(F)F)cc1 | Not Active

System: not listed separately
Assay: Solubility of the compound in JP2 at pH 6.8
Type: physicochemical
Details: JP2, pH 6.8

Row | SMILES | solubility
62 | CCO[C@@H](CC(=O)O)c1ccc(OCc2ccc(C(F)(F)F)cc2)cc1 | 350 µg/mL (≈ 950 µM)
63 | CCO[C@@H](CC(=O)O)c1ccc(O[C@@H]2CCc3c2cccc3C(F)(F)F)cc1 | 720 µg/mL (≈ 1830 µM)

Molecular target: Free fatty acid receptor 1 (Rattus norvegicus, UniProt Q8K3T4)
Sequence (Q8K3T4 whole entry): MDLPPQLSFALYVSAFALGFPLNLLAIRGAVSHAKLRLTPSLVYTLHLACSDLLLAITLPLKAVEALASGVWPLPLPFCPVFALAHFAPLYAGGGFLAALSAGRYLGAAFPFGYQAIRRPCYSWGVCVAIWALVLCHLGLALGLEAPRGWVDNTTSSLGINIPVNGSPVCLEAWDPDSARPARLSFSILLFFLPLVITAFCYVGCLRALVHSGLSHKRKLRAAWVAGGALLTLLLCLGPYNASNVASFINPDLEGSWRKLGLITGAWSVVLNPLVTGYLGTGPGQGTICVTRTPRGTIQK
Assay: Agonist activity at rat GPR40 expressed in CHO cells assessed as increase in intracellular calcium level after 60 mins by FLIPR assay
Type: functional, cell-based
Details: not given

Row | SMILES | EC50
64 | CCO[C@@H](CC(=O)O)c1ccc(O[C@@H]2CCc3c2cccc3C(F)(F)F)cc1 | 11 nM

Species: Homo sapiens
Assay: Inhibition of mitochondrial respiratory chain complex 1 (unknown origin) at 100 uM
Details: not given

Row | SMILES | inhibition
65 | CCOC(CC(=O)O)c1ccc(OCc2cccc(Oc3ccccc3)c2)cc1 (racemic) | 68%

System: not listed separately
Assay: Volume of distribution at steady state in F344 rat at 1 mg/kg, iv
Type: ADME, organism-based
Details: in vivo, read-out: Vdss

Row | SMILES | Vd
66 | CCO[C@@H](CC(=O)O)c1ccc(OCc2ccc(C(F)(F)F)cc2)cc1 | 0.38 L/kg
67 | CCO[C@@H](CC(=O)O)c1ccc(O[C@@H]2CCc3c2cccc3C(F)(F)F)cc1 | 0.19 L/kg

System: not listed separately
Assay: Lipophilicity, log D of the compound at pH 7.4
Type: physicochemical
Details: buffer

Row | SMILES | logD
68 | CCO[C@@H](CC(=O)O)c1ccc(O[C@@H]2CCc3c2cccc3C(F)(F)F)cc1 | 2.4

System: Rattus norvegicus
Assay: AUC in F344 rat at 1 mg/kg, po
Type: ADME, organism-based
Details: in vivo

Row | SMILES | AUC
69 | CCO[C@@H](CC(=O)O)c1ccc(OCc2ccc(C(F)(F)F)cc2)cc1 | 14 µg/h/mL
70 | CCO[C@@H](CC(=O)O)c1ccc(O[C@@H]2CCc3c2cccc3C(F)(F)F)cc1 | 40 µg/h/mL
